# Data from US10309967B2, “Methods of diagnosing bipolar disorders and screening for therapeutic compounds” (National University Corporation Chiba University, priority 2015, dated 2019).
# Entries after “also recorded” stand apart in the source; their conditions may differ.
# How the values were obtained:
# Aco2 = experiment: Quantitative PCR of Aco2 mRNA in rat prefrontal cortex and hippocampus after Li or VPA; assay type: in vivo; conditions: normalized to Gapdh; for Aco2 gene expression: relative to control, mean ± SD
# Protocol: (§1) Real-time quantitative RT-PCR analysis was conducted using an ABI7900HT Fast Real-Time PCR System (Applied Biosystems, Foster City, Calif.) in both human and rat samples. TaqMan probes and primers for the seven genes (ACO1, ACO2, IDH1, IDH2, IDH3A, IDH3B, IDH3G) and GAPDH (an internal control) (Table 11) were TAQMAN® Gene Expression Assays products (Applied Biosystems).
# (§2) The CSF concentrations of 116 major metabolites from several pathways were measured. […] Male Sprague-Dawley rats (Japan SLC Inc., Shizuoka, Japan) aged 6 weeks old were used in this study. All rats were housed in groups of three per cage in a room maintained at 23° C.±2° C. and 60±10% humidity with a 12/12 hour light/dark cycle (lights on at 7:00 a.m.). The rats were given free access to food and water. Animal care and use were conducted in accordance with the Institutional Guidelines for Animal Care and Use of Otsuka Pharmaceutical Co., Ltd. (Tokushima, Japan). […] The drinking water was replaced twice a week. […] All animals were decapitated on day 30 after CSF sampling, and brain regions (prefrontal cortex, and hippocampus) were dissected rapidly on ice. Metabolomic analyses of rat CSF samples were performed as described herein.
# (§3) Prefrontal cortex, and hippocampus were dissected rapidly on ice and stored in RNA later (Applied Biosystems) at 4° C. until used for RNA isolation, cDNA synthesis and polymerase chain reaction (PCR) amplification. The total RNA was extracted using the RNeasy Lipid Tissue Mini Kit (QIAGEN) following the instructions of manufacturer. RNA yield and integrity was assessed using Nanodrop (NanoDrop Technologies). Reverse transcription of total RNA was done using the […] VILO cDNA Synthesis Kit (Invitrogen). In the quantitative PCR, the cDNA was amplified using commercial TaqMan assays (Applied Biosystems) for rat Idh3A (Rn00586270_m1), Idh3B (Rn00504589_g1), Aco1 (Rn00569045_m1), Aco2 (Rn00577876_m1) and Gapdh (Rn01775763_g1) with an ABI 7500 Fast Real-Time PCR system (Applied Biosystems). (Table 17) Reactions were performed in triplicates. All reactions were normalized to Gapdh and presented as relative expression changes compared to control.
# serum samples from rats = experiment: Metabolomics of serum samples from rats chronically treated with Li or VPA; assay type: in vivo, rat; conditions: chronic (4-weeks) treatment
# Protocol: Data from human samples are presented as mean±standard deviation (SD). Statistical analysis was performed using SAS software version 9.3 (SAS Institute, Cary, N.C.). Analyses of metabolites between control and BD groups were performed using unpaired t-tests and Wilcoxon rank sum tests. A logistic regression model with a stepwise selection method was used for the multivariate analysis and multiple regression analysis (consistent with description in Allen et al., Technometrics. 1974; 16(1):125-127; and Miller et al., Chapman and Hall. 1974, which are incorporated in their entireties by reference herein). […] The Mann-Whitney U test (two-tailed) was used to evaluate changes in expression levels of the ACO and IDH genes between control and BD groups. Rat data are presented as mean±SD. To determine the effects of drug treatment, a one-way ANOVA, followed by the post hoc Dunnett's test was used. P values of less than 0.05 for two-tailed tests were considered statistically significant.
# as §2
# The serum concentrations of 116 major metabolites from several pathways were measured.
# Idh3b = experiment: Quantitative PCR of Idh3b mRNA in rat prefrontal cortex and hippocampus after Li or VPA; assay type: in vivo; conditions: normalized to Gapdh; for Idh3b gene expression: relative to control, mean ± SD
# Protocol: as §1, §2, §3
# Idh3a = experiment: Quantitative PCR of Idh3a mRNA in rat prefrontal cortex and hippocampus after Li or VPA; assay type: in vivo; conditions: normalized to Gapdh; for Idh3a gene expression: relative to control, mean ± SD
# Protocol: as §1, §2, §3
# [1] = rat prefrontal cortex and hippocampus, chronic (4-weeks) treatment, vs control
smiles,measurement,setting,value
"O=C([O-])[O-].[Li+].[Li+] [Li, lithium carbonate]",Aco2 gene expression,Aco2; rat hippocampus,1.1340 ± 0.1248
same,mRNA levels of Aco2,Aco2; [1],did not alter; also recorded: not altered
same,Aco2 gene expression,Aco2; rat prefrontal cortex,0.9921 ± 0.1576
same,"2,3-Diphosphoglyceric acid Mean",serum samples from rats; rat serum,2.3
same,2-Hydroxyglutaric acid Mean,serum samples from rats; rat serum,2.7
same,2-Oxoglutaric acid Mean,serum samples from rats; rat serum,64
same,2-Oxoisovaleric acid Mean,serum samples from rats; rat serum,12
same,2-Phosphoglyceric acid Mean,serum samples from rats; rat serum,0.7
same,3-Phosphoglyceric acid Mean,serum samples from rats; rat serum,5.5
same,ADP-ribose Mean,serum samples from rats; rat serum,0.2
same,AMP Mean,serum samples from rats; rat serum,0.5
same,ATP Mean,serum samples from rats; rat serum,4.3
same,Ala Mean,serum samples from rats; rat serum,671
same,Arg Mean,serum samples from rats; rat serum,206
same,Argininosuccinic acid Mean,serum samples from rats; rat serum,0.6
same,Asn Mean,serum samples from rats; rat serum,87
same,Asp Mean,serum samples from rats; rat serum,13
same,Betaine Mean,serum samples from rats; rat serum,259
same,Carnitine Mean,serum samples from rats; rat serum,65
same,Carnosine Mean,serum samples from rats; rat serum,0.2
same,Choline Mean,serum samples from rats; rat serum,15
same,Citric acid Mean,serum samples from rats; rat serum,212
same,Citrulline Mean,serum samples from rats; rat serum,103
same,Creatine Mean,serum samples from rats; rat serum,104
same,Creatinine Mean,serum samples from rats; rat serum,26
same,Cystathionine Mean,serum samples from rats; rat serum,1.2
same,"Fructose 1,6-diphosphate Mean",serum samples from rats; rat serum,0.3
same,Fructose 6-phosphate Mean,serum samples from rats; rat serum,0.10
same,Fumaric acid Mean,serum samples from rats; rat serum,4.0
same,GDP Mean,serum samples from rats; rat serum,0.5
same,GMP Mean,serum samples from rats; rat serum,0.12
same,GTP Mean,serum samples from rats; rat serum,2.0
same,Gln Mean,serum samples from rats; rat serum,817
same,Glu Mean,serum samples from rats; rat serum,140
same,Glucose 6-phosphate Mean,serum samples from rats; rat serum,0.6
same,Glutathione (GSSG) Mean,serum samples from rats; rat serum,0.5
same,Gly Mean,serum samples from rats; rat serum,340
same,Glycerol 3-phosphate Mean,serum samples from rats; rat serum,3.1
same,Glycolic acid Mean,serum samples from rats; rat serum,9.4
same,His Mean,serum samples from rats; rat serum,89
same,Hydroxyproline Mean,serum samples from rats; rat serum,65
same,IMP Mean,serum samples from rats; rat serum,0.14
same,Ile Mean,serum samples from rats; rat serum,119
same,Isocitric acid Mean,serum samples from rats; rat serum,9.5
same,Lactic acid Mean,serum samples from rats; rat serum,"2,764"
same,Leu Mean,serum samples from rats; rat serum,199
same,Lys Mean,serum samples from rats; rat serum,468
same,Malic acid Mean,serum samples from rats; rat serum,23
same,Met Mean,serum samples from rats; rat serum,59
same,Mevalonic acid Mean,serum samples from rats; rat serum,0.05
same,"N,N-Dimethylglycine Mean",serum samples from rats; rat serum,18
same,N-Carbamoylaspartic acid Mean,serum samples from rats; rat serum,0.02
same,NAD^+ Mean,serum samples from rats; rat serum,1.1
same,Ornithine Mean,serum samples from rats; rat serum,75
same,Phe Mean,serum samples from rats; rat serum,67
same,Phosphocreatine Mean,serum samples from rats; rat serum,0.7
same,Pro Mean,serum samples from rats; rat serum,272
same,Putrescine Mean,serum samples from rats; rat serum,0.4
same,Pyruvic acid Mean,serum samples from rats; rat serum,126
same,Ribose 1-phosphate Mean,serum samples from rats; rat serum,0.3
same,Ribose 5-phosphate Mean,serum samples from rats; rat serum,0.04
same,Ribulose 5-phosphate Mean,serum samples from rats; rat serum,0.2
same,Sarcosine Mean,serum samples from rats; rat serum,7.2
same,Ser Mean,serum samples from rats; rat serum,319
same,Succinic acid Mean,serum samples from rats; rat serum,17
same,Thr Mean,serum samples from rats; rat serum,298
same,Trp Mean,serum samples from rats; rat serum,148
same,Tyr Mean,serum samples from rats; rat serum,95
same,UDP-glucose Mean,serum samples from rats; rat serum,0.6
same,Urea Mean,serum samples from rats; rat serum,"6,360"
same,Uric acid Mean,serum samples from rats; rat serum,23
same,Val Mean,serum samples from rats; rat serum,283
same,cAMP Mean,serum samples from rats; rat serum,0.04
same,cGMP Mean,serum samples from rats; rat serum,0.02
same,cis-Aconitic acid Mean,serum samples from rats; rat serum,4.3
same,β-Ala Mean,serum samples from rats; rat serum,2.0
same,serum levels of 2-oxoglutaric acid,"serum samples from rats; rats, vs control",significantly increased
same,serum levels of N-acetylglutamic acid,"serum samples from rats; rats, vs control",not altered
same,serum levels of arginine,"serum samples from rats; rats, vs control",not altered
same,serum levels of pyruvic acid,"serum samples from rats; rats, vs control",not altered
same,serum levels of serine,"serum samples from rats; rats, vs control",not altered
same,serum levels of β-alanine,"serum samples from rats; rats, vs control",not altered
same,Idh3b gene expression,Idh3b; rat hippocampus,1.3074 ± 0.2494
same,mRNA levels of Idh3b,Idh3b; [1],did not alter; also recorded: not altered
same,Idh3b gene expression,Idh3b; rat prefrontal cortex,1.3440 ± 0.4424
same,Idh3a gene expression,Idh3a; rat hippocampus,1.2250 ± 0.2326
same,mRNA levels of Idh3a,Idh3a; [1],did not alter; also recorded: not altered
same,Idh3a gene expression,Idh3a; rat prefrontal cortex,1.3420 ± 0.5725
